Source: US4245106A, “Process for the preparation of 1-alkyl-3-aryl-4-pyrazolecarboxylates” (Monsanto Company, priority 1979, dated 1981)

Legend:
Type in all cases: in vivo
Barnyard grass [1] = assay: pre-emergent herbicidal activity test
Description: (§1) Table II summarizes results of tests conducted to determine the pre-emergent as well as the post-emergent herbicidal activity of the compounds. The pre-emergent test was conducted as follows:
(§2) A good grade of top soil was placed in aluminum pans and compacted to a depth of three-eighths to one-half inch from the top of the pan. On the top of the soil was placed a predetermined number of seeds or vegetative propagules of various plant species. The soil required to level fill the pans after seeding or adding vegetative propagules was weighed into a pan. A known amount of the active ingredient applied in a solvent or as a wettable powder and the soil were thoroughly mixed, and used as a cover layer for prepared pans. After treatment the pans were moved into a greenhouse bench where they were watered from below as needed to give adequate moisture for germination and growth.
(§3) A herbicial rating code was used to signify the extent of phytotoxicity of each species. The rating are defined as follows: […]

Bromus tectorum [2] = assay: pre-emergent herbicidal activity test
Description: as §1, §2, §3

Canada Thistle [3] = assay: pre-emergent herbicidal activity test
Description: as §1, §2, §3

Cocklebur [4] = assay: pre-emergent herbicidal activity test
Description: as §1, §2, §3

Johnsongrass [5] = assay: pre-emergent herbicidal activity test
Description: as §1, §2, §3

Lambsquarter [6] = assay: pre-emergent herbicidal activity test
Description: as §1, §2, §3

Morningglory [7] = assay: pre-emergent herbicidal activity test
Description: as §1, §2, §3

Nutsedge [8] = assay: pre-emergent herbicidal activity test
Description: as §1, §2, §3

Quackgrass [9] = assay: pre-emergent herbicidal activity test
Description: as §1, §2, §3

Smartweed [10] = assay: pre-emergent herbicidal activity test
Description: as §1, §2, §3

Velvetleaf [11] = assay: pre-emergent herbicidal activity test
Description: as §1, §2, §3

Barnyard grass [12] = assay: post-emergent herbicidal activity test
Description: (§4) The post-emergent tests were conducted as follows. The active ingredients are applied in spray form to two or three-week old specimens of various plant species. The spray, a solution or wettable powder suspension containing the appropriate rate of active ingredient to give the desired test rate and a surfactant, is applied to the plants. The treated plants are placed in a greenhouse and unless otherwise noted approximately four weeks later the effects are observed and recorded.

Bromus tectorum [13] = assay: post-emergent herbicidal activity test
Description: as §4

Canada Thistle [14] = assay: post-emergent herbicidal activity test
Description: as §4

Cocklebur [15] = assay: post-emergent herbicidal activity test
Description: as §4

Johnsongrass [16] = assay: post-emergent herbicidal activity test
Description: as §4

Lambsquarter [17] = assay: post-emergent herbicidal activity test
Description: as §4

Morningglory [18] = assay: post-emergent herbicidal activity test
Description: as §4

Nutsedge [19] = assay: post-emergent herbicidal activity test
Description: as §4

Quackgrass [20] = assay: post-emergent herbicidal activity test
Description: as §4

Smartweed [21] = assay: post-emergent herbicidal activity test
Description: as §4

Velvetleaf [22] = assay: post-emergent herbicidal activity test
Description: as §4

[23] = 11.2 Kg/Ha, approximately 28 days after seeding and treating
[24] = 11.2 Kg/Ha, approximately four weeks later
[25] = *11.2 Kg/Ha, observed approximately 14 days after treatment
Further: ranges in brackets are in %.

CCOC(=O)c1cn(C)nc1-c1ccc(C(F)(F)F)cc1 [Example 17]
Pre-Emergent herbicidal rating, K Barnyard grass (Barnyard grass [1]; [23]): 2 (50-74) | Pre-Emergent herbicidal rating, J Bromus tectorum (Bromus tectorum [2]; [23]): 1 (25-49) | Pre-Emergent herbicidal rating, A Canada Thistle (Canada Thistle [3]; [23]): 0 (0-24) | Pre-Emergent herbicidal rating, B Cocklebur (Cocklebur [4]; [23]): 0 (0-24) | Pre-Emergent herbicidal rating, I Johnsongrass (Johnsongrass [5]; [23]): 0 (0-24) | Pre-Emergent herbicidal rating, E Lambsquarter (Lambsquarter [6]; [23]): 3 (75-100) | Pre-Emergent herbicidal rating, D Morningglory (Morningglory [7]; [23]): 0 (0-24) | Pre-Emergent herbicidal rating, G Nutsedge (Nutsedge [8]; [23]): 1 (25-49) | Pre-Emergent herbicidal rating, H Quackgrass (Quackgrass [9]; [23]): 0 (0-24) | Pre-Emergent herbicidal rating, F Smartweed (Smartweed [10]; [23]): 2 (50-74) | Pre-Emergent herbicidal rating, C Velvetleaf (Velvetleaf [11]; [23]): 0 (0-24) | Post-Emergent herbicidal rating, K Barnyard grass (Barnyard grass [12]; [24]): 0 (0-24) | Post-Emergent herbicidal rating, J Bromus tectorum (Bromus tectorum [13]; [24]): 0 (0-24) | Post-Emergent herbicidal rating, A Canada Thistle (Canada Thistle [14]; [24]): 1 (25-49) | Post-Emergent herbicidal rating, B Cocklebur (Cocklebur [15]; [24]): 0 (0-24) | Post-Emergent herbicidal rating, I Johnsongrass (Johnsongrass [16]; [24]): 0 (0-24) | Post-Emergent herbicidal rating, E Lambsquarter (Lambsquarter [17]; [24]): 0 (0-24) | Post-Emergent herbicidal rating, D Morningglory (Morningglory [18]; [24]): 0 (0-24) | Post-Emergent herbicidal rating, G Nutsedge (Nutsedge [19]; [24]): 0 (0-24) | Post-Emergent herbicidal rating, H Quackgrass (Quackgrass [20]; [24]): 0 (0-24) | Post-Emergent herbicidal rating, F Smartweed (Smartweed [21]; [24]): 0 (0-24) | Post-Emergent herbicidal rating, C Velvetleaf (Velvetleaf [22]; [24]): 0 (0-24)

Cn1cc(C(=O)OCC2CC(F)(F)C2(F)F)c(-c2cccc(C(F)(F)F)c2)n1 (stereo not drawn) [Example 18]
Pre-Emergent herbicidal rating, K Barnyard grass (Barnyard grass [1]; [25]): 1 (25-49) | Pre-Emergent herbicidal rating, J Bromus tectorum (Bromus tectorum [2]; [25]): 1 (25-49) | Pre-Emergent herbicidal rating, A Canada Thistle (Canada Thistle [3]; [25]): 1 (25-49) | Pre-Emergent herbicidal rating, B Cocklebur (Cocklebur [4]; [25]): 0 (0-24) | Pre-Emergent herbicidal rating, I Johnsongrass (Johnsongrass [5]; [25]): 0 (0-24) | Pre-Emergent herbicidal rating, E Lambsquarter (Lambsquarter [6]; [25]): 2 (50-74) | Pre-Emergent herbicidal rating, D Morningglory (Morningglory [7]; [25]): 1 (25-49) | Pre-Emergent herbicidal rating, G Nutsedge (Nutsedge [8]; [25]): 0 (0-24) | Pre-Emergent herbicidal rating, H Quackgrass (Quackgrass [9]; [25]): 0 (0-24) | Pre-Emergent herbicidal rating, F Smartweed (Smartweed [10]; [25]): 2 (50-74) | Pre-Emergent herbicidal rating, C Velvetleaf (Velvetleaf [11]; [25]): 1 (25-49) | Post-Emergent herbicidal rating, K Barnyard grass (Barnyard grass [12]; [25]): 1 (25-49) | Post-Emergent herbicidal rating, J Bromus tectorum (Bromus tectorum [13]; [25]): 1 (25-49) | Post-Emergent herbicidal rating, A Canada Thistle (Canada Thistle [14]; [25]): 1 (25-49) | Post-Emergent herbicidal rating, B Cocklebur (Cocklebur [15]; [25]): 1 (25-49) | Post-Emergent herbicidal rating, I Johnsongrass (Johnsongrass [16]; [25]): 1 (25-49) | Post-Emergent herbicidal rating, E Lambsquarter (Lambsquarter [17]; [25]): 2 (50-74) | Post-Emergent herbicidal rating, D Morningglory (Morningglory [18]; [25]): 2 (50-74) | Post-Emergent herbicidal rating, G Nutsedge (Nutsedge [19]; [25]): 0 (0-24) | Post-Emergent herbicidal rating, H Quackgrass (Quackgrass [20]; [25]): 1 (25-49) | Post-Emergent herbicidal rating, F Smartweed (Smartweed [21]; [25]): 1 (25-49) | Post-Emergent herbicidal rating, C Velvetleaf (Velvetleaf [22]; [25]): 2 (50-74)

C=C(Cl)COC(=O)c1cn(C)nc1-c1cccc(C(F)(F)F)c1 [Example 19]
Pre-Emergent herbicidal rating, K Barnyard grass (Barnyard grass [1]; [25]): 2 (50-74) | Pre-Emergent herbicidal rating, J Bromus tectorum (Bromus tectorum [2]; [25]): 1 (25-49) | Pre-Emergent herbicidal rating, A Canada Thistle (Canada Thistle [3]; [25]): 1 (25-49) | Pre-Emergent herbicidal rating, B Cocklebur (Cocklebur [4]; [25]): 0 (0-24) | Pre-Emergent herbicidal rating, I Johnsongrass (Johnsongrass [5]; [25]): 1 (25-49) | Pre-Emergent herbicidal rating, E Lambsquarter (Lambsquarter [6]; [25]): 3 (75-100) | Pre-Emergent herbicidal rating, D Morningglory (Morningglory [7]; [25]): 1 (25-49) | Pre-Emergent herbicidal rating, G Nutsedge (Nutsedge [8]; [25]): 1 (25-49) | Pre-Emergent herbicidal rating, H Quackgrass (Quackgrass [9]; [25]): 1 (25-49) | Pre-Emergent herbicidal rating, F Smartweed (Smartweed [10]; [25]): 2 (50-74) | Pre-Emergent herbicidal rating, C Velvetleaf (Velvetleaf [11]; [25]): 1 (25-49) | Post-Emergent herbicidal rating, K Barnyard grass (Barnyard grass [12]; [25]): 1 (25-49) | Post-Emergent herbicidal rating, J Bromus tectorum (Bromus tectorum [13]; [25]): 0 (0-24) | Post-Emergent herbicidal rating, A Canada Thistle (Canada Thistle [14]; [25]): 1 (25-49) | Post-Emergent herbicidal rating, B Cocklebur (Cocklebur [15]; [25]): 1 (25-49) | Post-Emergent herbicidal rating, I Johnsongrass (Johnsongrass [16]; [25]): 1 (25-49) | Post-Emergent herbicidal rating, E Lambsquarter (Lambsquarter [17]; [25]): 1 (25-49) | Post-Emergent herbicidal rating, D Morningglory (Morningglory [18]; [25]): 1 (25-49) | Post-Emergent herbicidal rating, G Nutsedge (Nutsedge [19]; [25]): 0 (0-24) | Post-Emergent herbicidal rating, H Quackgrass (Quackgrass [20]; [25]): 0 (0-24) | Post-Emergent herbicidal rating, F Smartweed (Smartweed [21]; [25]): 1 (25-49) | Post-Emergent herbicidal rating, C Velvetleaf (Velvetleaf [22]; [25]): 1 (25-49)
